Values of other authors, collected in patent publication US20070167440A1, “Novel pyrrolidine compound and a process for preparing the same” (priority 2004, published 2007).

System: gastric motility
Settings: mice; disclosed in JP1993-17434

In the case of `COc1cc(N)c(Cl)cc1C(=O)NC1CC(CO)N(C(c2ccccc2)c2ccccc2)C1` (stereo not shown) [4-amino-5-chloro-N-[1-(diphenylmethyl)-5-(hydroxymethyl)-3-pyrrolidinyl]-2-methoxy-benzamide], the gastric motility is given as “increased gastric motility”.
